Experimental data reported in the supplement of paper PMC10307832.

Legend:
Test in all cases: relative viability (nuclei count vs DMSO), 5 days (fraction); higher = more cells survive
[1] = compound: C1/C(=C\C2=CC=CS2)/C(=O)/C(=C/C3=CC=CS3)/C1 + C[C@]1(O)C[C@@H](c2nc(-c3ccc4ccc(-c5ccccc5)nc4c3)c3c(N)nccn32)C1 [Linsitinib] (partner 1 µM)
In short: (§1)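 A single step with final 0.05% Triton X-100, 1% formaldehyde and 1 ug/ml Hoechst fixed the cells and stained nuclei 5 days after treatment. Lung cancer cell lines in 1536-well plates had been treated by pin tool the day after seeding with one drug alone or a fixed anchor-drug dose plus five library-drug doses (not always all listed) in √10 steps, and nuclei were counted on 4× images. Relative viability is the ratio of nuclei in treated wells to nuclei in vehicle wells, taken as the median of duplicate plates.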

[2] = compound: C1/C(=C\C2=CC=CS2)/C(=O)/C(=C/C3=CC=CS3)/C1 + N=C(N)NC(=N)NCCc1ccccc1 [Phenformin] (partner 250 µM)
In short: as §1

Lestaurtinib + Dasatinib = compound: C[C@]12O[C@H](C[C@]1(O)CO)n1c3ccccc3c3c4c(c5c6ccccc6n2c5c31)CNC4=O [Lestaurtinib] + Cc1nc(Nc2ncc(C(=O)Nc3c(C)cccc3Cl)s2)cc(N2CCN(CCO)CC2)n1 [Dasatinib] (partner 0.075 µM)
In short: as §1

[3] = compound: C1/C(=C\C2=CC=CS2)/C(=O)/C(=C/C3=CC=CS3)/C1 + CC(C)C[C@H](NC(=O)[C@H](Cc1ccccc1)NC(=O)c1cnccn1)B(O)O [Bortezomib] (partner 0.002 µM)
In short: as §1

NCI-H358
relative viability ([1]; first compound 0.2 µM): 0.887
relative viability ([1]; first compound 0.6325 µM): 0.757
relative viability ([1]; first compound 2 µM): 0.821
relative viability ([1]; first compound 6.325 µM): 0.644
relative viability ([1]; first compound 20 µM): 0.809
relative viability ([2]; first compound 0.2 µM): 0.358
relative viability ([2]; first compound 0.6325 µM): 0.303
relative viability ([2]; first compound 2 µM): 0.428
relative viability ([2]; first compound 20 µM): 0.281
relative viability (Lestaurtinib + Dasatinib; first compound 0.005 µM): 0.15
relative viability (Lestaurtinib + Dasatinib; first compound 0.01581 µM): 0.129
relative viability (Lestaurtinib + Dasatinib; first compound 0.05 µM): 0.162
relative viability (Lestaurtinib + Dasatinib; first compound 0.1581 µM): 0.105
relative viability (Lestaurtinib + Dasatinib; first compound 0.5 µM): 0.115

NCI-H522
relative viability ([2]; first compound 0.2 µM): 0.677
relative viability ([2]; first compound 0.6325 µM): 0.649
relative viability ([2]; first compound 2 µM): 0.662
relative viability ([2]; first compound 6.325 µM): 0.644
relative viability ([2]; first compound 20 µM): 0.651
relative viability (Lestaurtinib + Dasatinib; first compound 0.005 µM): 0.798
relative viability (Lestaurtinib + Dasatinib; first compound 0.01581 µM): 0.807
relative viability (Lestaurtinib + Dasatinib; first compound 0.05 µM): 0.934
relative viability (Lestaurtinib + Dasatinib; first compound 0.1581 µM): 0.821
relative viability (Lestaurtinib + Dasatinib; first compound 0.5 µM): 0.493

NCI-H1793
relative viability ([1]; first compound 0.2 µM): 0.815
relative viability ([1]; first compound 0.6325 µM): 0.855
relative viability ([1]; first compound 2 µM): 0.913
relative viability ([1]; first compound 6.325 µM): 0.855
relative viability ([1]; first compound 20 µM): 0.685
relative viability ([2]; first compound 0.2 µM): 0.375
relative viability ([2]; first compound 0.6325 µM): 0.351
relative viability ([2]; first compound 2 µM): 0.515
relative viability ([2]; first compound 6.325 µM): 0.337
relative viability ([2]; first compound 20 µM): 0.355
relative viability (Lestaurtinib + Dasatinib; first compound 0.005 µM): 0.431
relative viability (Lestaurtinib + Dasatinib; first compound 0.01581 µM): 0.392
relative viability (Lestaurtinib + Dasatinib; first compound 0.05 µM): 0.316
relative viability (Lestaurtinib + Dasatinib; first compound 0.1581 µM): 0.361
relative viability (Lestaurtinib + Dasatinib; first compound 0.5 µM): 0.271

SW 900
relative viability ([2]; first compound 0.2 µM): 0.613
relative viability ([2]; first compound 0.6325 µM): 0.551
relative viability ([2]; first compound 2 µM): 0.875
relative viability ([2]; first compound 6.325 µM): 0.69
relative viability ([2]; first compound 20 µM): 0.541
relative viability (Lestaurtinib + Dasatinib; first compound 0.005 µM): 0.739
relative viability (Lestaurtinib + Dasatinib; first compound 0.01581 µM): 0.702
relative viability (Lestaurtinib + Dasatinib; first compound 0.05 µM): 0.445
relative viability (Lestaurtinib + Dasatinib; first compound 0.1581 µM): 0.57
relative viability (Lestaurtinib + Dasatinib; first compound 0.5 µM): 0.32

SK-MES-1
relative viability ([1]; first compound 0.2 µM): 1.05
relative viability ([1]; first compound 0.6325 µM): 1.1
relative viability ([1]; first compound 2 µM): 0.992
relative viability ([1]; first compound 6.325 µM): 0.818
relative viability ([1]; first compound 20 µM): 0.982
relative viability ([2]; first compound 0.2 µM): 0.722
relative viability ([2]; first compound 0.6325 µM): 0.742
relative viability ([2]; first compound 2 µM): 0.605
relative viability ([2]; first compound 6.325 µM): 0.644
relative viability ([2]; first compound 20 µM): 0.546
relative viability (Lestaurtinib + Dasatinib; first compound 0.005 µM): 0.396
relative viability (Lestaurtinib + Dasatinib; first compound 0.01581 µM): 0.333
relative viability (Lestaurtinib + Dasatinib; first compound 0.05 µM): 0.426
relative viability (Lestaurtinib + Dasatinib; first compound 0.1581 µM): 0.206
relative viability (Lestaurtinib + Dasatinib; first compound 0.5 µM): 0.159

EBC-1
relative viability ([3]; first compound 0.2 µM): 0.524
relative viability ([3]; first compound 0.6325 µM): 0.558
relative viability ([3]; first compound 2 µM): 0.551
relative viability ([3]; first compound 6.325 µM): 0.441
relative viability ([3]; first compound 20 µM): 0.605
relative viability ([1]; first compound 0.2 µM): 0.904
relative viability ([1]; first compound 0.6325 µM): 0.973
relative viability ([1]; first compound 2 µM): 0.887
relative viability ([1]; first compound 6.325 µM): 0.801
relative viability ([1]; first compound 20 µM): 0.942

LK-2
relative viability ([1]; first compound 0.2 µM): 0.641
relative viability ([1]; first compound 0.6325 µM): 0.857
relative viability ([1]; first compound 2 µM): 0.633
relative viability ([1]; first compound 6.325 µM): 0.583
relative viability ([1]; first compound 20 µM): 0.59
relative viability ([2]; first compound 0.2 µM): 0.576
relative viability ([2]; first compound 0.6325 µM): 0.505
relative viability ([2]; first compound 2 µM): 0.622
relative viability ([2]; first compound 6.325 µM): 0.379
relative viability ([2]; first compound 20 µM): 0.483
relative viability (Lestaurtinib + Dasatinib; first compound 0.005 µM): 0.296
relative viability (Lestaurtinib + Dasatinib; first compound 0.01581 µM): 0.255
relative viability (Lestaurtinib + Dasatinib; first compound 0.05 µM): 0.241
relative viability (Lestaurtinib + Dasatinib; first compound 0.1581 µM): 0.275
relative viability (Lestaurtinib + Dasatinib; first compound 0.5 µM): 0.158

NCI-H1650
relative viability ([3]; first compound 0.2 µM): 0.221
relative viability ([3]; first compound 0.6325 µM): 0.231
relative viability ([3]; first compound 2 µM): 0.327
relative viability ([3]; first compound 6.325 µM): 0.202
relative viability ([3]; first compound 20 µM): 0.186
relative viability ([2]; first compound 0.2 µM): 0.495
relative viability ([2]; first compound 0.6325 µM): 0.434
relative viability ([2]; first compound 2 µM): 0.426
relative viability ([2]; first compound 6.325 µM): 0.391
relative viability ([2]; first compound 20 µM): 0.467
relative viability (Lestaurtinib + Dasatinib; first compound 0.005 µM): 0.263
relative viability (Lestaurtinib + Dasatinib; first compound 0.01581 µM): 0.345
relative viability (Lestaurtinib + Dasatinib; first compound 0.05 µM): 0.391
relative viability (Lestaurtinib + Dasatinib; first compound 0.1581 µM): 0.387
relative viability (Lestaurtinib + Dasatinib; first compound 0.5 µM): 0.144

IA-LM
relative viability ([3]; first compound 0.2 µM): 0.809
relative viability ([3]; first compound 0.6325 µM): 0.909
relative viability ([3]; first compound 2 µM): 0.886
relative viability ([3]; first compound 6.325 µM): 0.753
relative viability ([3]; first compound 20 µM): 0.665
relative viability ([1]; first compound 0.2 µM): 0.623
relative viability ([1]; first compound 0.6325 µM): 0.895
relative viability ([1]; first compound 2 µM): 0.623
relative viability ([1]; first compound 6.325 µM): 0.616
relative viability ([1]; first compound 20 µM): 0.523

NCI-H1703
relative viability ([3]; first compound 0.2 µM): 0.338
relative viability ([3]; first compound 0.6325 µM): 0.432
relative viability ([3]; first compound 2 µM): 0.28
relative viability ([3]; first compound 6.325 µM): 0.25
relative viability ([3]; first compound 20 µM): 0.336
relative viability ([1]; first compound 0.2 µM): 1.42
relative viability ([1]; first compound 0.6325 µM): 0.978
relative viability ([1]; first compound 2 µM): 0.633
relative viability ([1]; first compound 6.325 µM): 0.887
relative viability ([1]; first compound 20 µM): 0.725

NCI-H1395
relative viability ([1]; first compound 0.2 µM): 1.12
relative viability ([1]; first compound 0.6325 µM): 1.06
relative viability ([1]; first compound 2 µM): 1.29
relative viability ([1]; first compound 6.325 µM): 0.89
relative viability ([1]; first compound 20 µM): 1.05
relative viability ([2]; first compound 0.2 µM): 0.448
relative viability ([2]; first compound 0.6325 µM): 0.484
relative viability ([2]; first compound 2 µM): 0.505
relative viability ([2]; first compound 6.325 µM): 0.483
relative viability ([2]; first compound 20 µM): 0.465
relative viability (Lestaurtinib + Dasatinib; first compound 0.005 µM): 0.423
relative viability (Lestaurtinib + Dasatinib; first compound 0.01581 µM): 0.402
relative viability (Lestaurtinib + Dasatinib; first compound 0.05 µM): 0.398
relative viability (Lestaurtinib + Dasatinib; first compound 0.1581 µM): 0.373
relative viability (Lestaurtinib + Dasatinib; first compound 0.5 µM): 0.363
